Columns and labels:
[1] = molecular target: T1, hSARM1 SAM-TIR (Homo sapiens, UniProt Q6SZW1); assay: Base exchange reactions at neutral pH (HPLC); assay type: biochemical
T1 construct: made in house
T1 sequence (Q6SZW1 409-724): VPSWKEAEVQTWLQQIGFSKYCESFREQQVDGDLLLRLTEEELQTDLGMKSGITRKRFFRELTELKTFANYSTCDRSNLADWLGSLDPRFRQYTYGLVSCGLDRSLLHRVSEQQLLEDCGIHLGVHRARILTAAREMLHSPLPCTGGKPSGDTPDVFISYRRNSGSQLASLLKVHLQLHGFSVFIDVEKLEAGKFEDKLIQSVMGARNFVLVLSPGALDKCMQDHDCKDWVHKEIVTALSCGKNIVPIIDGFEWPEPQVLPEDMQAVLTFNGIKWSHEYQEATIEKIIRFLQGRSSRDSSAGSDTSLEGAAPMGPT
Experimental: Multiple time stops from individual assays as above were analyzed for linearity, then extents of hydrolysis (white bars), cyclization (red bars), or base exchange (black bars) were calculated from each corresponding product as shown in Figure 1B and STAR methods. […] See also Figures S3–S5, and Table S1
Rates were calculated as follows.

[2] = molecular target: T2, hCD38 (Homo sapiens, UniProt P28907); assay: Base exchange reactions at neutral pH (HPLC); assay type: biochemical
T2 construct: a soluble fragment Val43-Ile300 with 6x-His tag at C terminus; 6xHis (C); purchased R&D Systems
T2 sequence (P28907 43-300): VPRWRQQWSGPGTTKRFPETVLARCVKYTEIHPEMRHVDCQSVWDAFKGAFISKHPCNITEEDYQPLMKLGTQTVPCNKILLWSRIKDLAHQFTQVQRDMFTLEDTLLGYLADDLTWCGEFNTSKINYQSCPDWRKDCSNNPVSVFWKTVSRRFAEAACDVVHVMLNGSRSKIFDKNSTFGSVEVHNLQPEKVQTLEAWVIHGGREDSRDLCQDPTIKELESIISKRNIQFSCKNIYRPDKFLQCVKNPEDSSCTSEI

[3] = NAD […] alone or + AcPyr 2 mM / Vacor 0.5 mM / Na 2 mM
[4] = NADP […] alone or + AcPyr 2 mM / Vacor 0.5 mM / Na 2 mM

Row | SMILES | rate [1, 3] [mU/mg] | rate [1, 4] [mU/mg] | rate [2, 3] [mU/mg] | rate [2, 4] [mU/mg]
1 | CC(=O)c1cccnc1 [AcPyr, 3-acetylpyridine] | 427.3 ±76.5 | 261.7 ±60.9 | 8284 ±992 | 3255 ±787
2 | O=C(NCc1cccnc1)Nc1ccc([N+](=O)[O-])cc1 [Vacor, 1-(4-nitrophenyl)-3-(pyridin-3-ylmethyl)urea] | 284.8 ±51.1 | 266.0 ±54.1 | 6818 ±1376 | 3496 ±593

Source: paper PMC8844822, “SARM1 is a multi-functional NAD(P)ase with prominent base exchange activity, all regulated bymultiple physiologically relevant NAD metabolites” (iScience, 2022)
